In patent publication US20200061092A1, “METHODS AND COMPOSITIONS FOR TREATING DISORDERS ASSOCIATED WITH MUSCLE WEAKNESS” (priority 2018, published 2020):

What was measured:
[1] = system: muscular dystrophy caused by FKRP mutations; assay: Ribitol/ribose supplementation in animal model of FKRP mutation muscular dystrophy; type: in vivo; conditions: supplement via drinking water
C2C12 myotubes = assay: LC/MS-MS of isotopically labeled metabolites in differentiated C2C12 myotubes; type: cell-based, mouse; conditions: 5 mM, 5 days

| Compound | Disease pathology of muscular dystrophy caused by FKRP mutations [1] | Levels of 13C-ribitol-5P and CDP-13C-ribitol in cells (C2C12 myotubes) |
| --- | --- | --- |
| O=C[C@H](O)[C@H](O)[C@H](O)CO [ribose] | diminish disease pathology | – |
| ^13C5-ribitol [^13C-ribitol] | – | clearly elevated levels |
